# Test results published in patent publication US7674823B2, “DNA-PK inhibitors” (Cancer Research Technology Limited, priority 2001, dated 2010).
# Read-outs that look alike come from different tables or passages of the source.
# What was measured:
# PI 3-kinase (p110α/p85α) [1] = target: T1, PI 3-kinase (p110α/p85α) (UniProt P32871); experiment: PI 3-kinase inhibition assay; assay type: biochemical; conditions: GST-fused p110α/p85α
# T1 construct: other: GST-fused p110α/p85α
# Text: (§1) In order to assess the inhibitory action of the compounds against PI 3-kinase in vitro, the following assay was used to determine IC50 values.
# (§2) Baculoviral recombinant GST-fused PI 3-kinase (p110α/p85α) was purified from Sf9 insect cells using GSH-sepharose affinity chromatography as described (Wymann, M. T et al., (1996) Wortmannin inactivates phosphoinositide 3-kinase by covalent modification of Lys-802, a residue involved in the phosphate transfer reaction. Mol. Cell Biol. 16:1722-1733). PI 3-kinase (1 μl) was diluted in reaction buffer (89 μl of 50 mM Hepes pH 7.5, 150 mM NaCl, 0.1 mM Sodium Orthovanadate, containing 20 μg of phosphatidylinositol) and varying concentrations of inhibitor compound added. […] Reactions were incubated for a further 20 minutes at 37° C., before quenching with the addition of 400 μl of chloroform/methanol (1:1). Reactions were acidified by the addition of 200 μl of 1M HCl, before separation of the organic and aqueous phases by centrifugation at 10,000 g for 30 seconds. The organic phase was transferred to a fresh tube and washed twice with 150 μl of 1M hydrochloric acid/methanol (1:1), discarding the aqueous phase. The washed reaction product was then placed in a white 96-well plate with 100 μl of scintillation fluid and transferred to a TopCount NXT for scintillation counting. Counts per minute, following a one minute counting time, were recorded for each reaction. The inhibition of PI 3-kinase activity by compounds was calculated as described above for the DNA-PK assay.
# (§3) The selectivity was determined by the following equation: […]
# PI 3-kinase (p110α/p85α) [2] = experiment: PI 3-kinase inhibition assay; assay type: biochemical; conditions: selectivity ratio from the IC50s for PI 3-kinase and DNA-PK
# Text: as §1, §2, §3
# ATM protein [3] = target: T2, ATM protein (Homo sapiens, UniProt Q13315); experiment: ATM inhibition assay (immunoprecipitated ATM, GSTp53N66 substrate); assay type: biochemical
# T2 construct: ATM protein was immunoprecipitated from HeLa cell nuclear extract; endogenous in cells; host or cells: HeLa cell nuclear extract (immunoprecipitate)
# Description: (§4) In order to assess the inhibitory action of the compounds against ATM in vitro, the following assay was used to determine IC50 values.
# (§5) ATM protein was immunoprecipitated from HeLa cell nuclear extract using rabbit polyclonal antisera raised to the C-terminal ˜500 amino-acid residues of the human ATM protein. The immunoprecipitation was performed according to the methodology described by Banin, S. et al. (1998) Enhanced phosphorylation of p53 by ATM in response to DNA damage. Science 281:1674-1677. 10 μl of immunoprecipitated ATM in Buffer C (50 mM Hepes, pH 7.4, 6 mM MgCl2, 150 mM NaCl, 0.1 mM sodium orthovanadate, 4 mM MnCl2, 0.1 mM dithiothreitol, 10% glycerol) was added to 32.5 μl of buffer C containing 1 μg of the ATM substrate GSTp53N66 in a V-bottomed 96 well polypropylene plate. The GSTp53N66 substrate is the amino terminal 66 amino acid residues of human wild type p53 fused to glutathione S-transferase. ATM phosphorylates p53 on the residue serine 15 (Banin, S. et al. (1998) Enhanced phosphorylation of p53 by ATM in response to DNA damage. Science 281:1674-1677). Varying concentrations of inhibitor were then added. […] After 10 minutes of incubation at 37° C., the reactions were initiated by the addition of 5 μl of 50 μM Na-ATP. After 1 h with shaking at 37° C., 150 μl of phosphate buffered saline (PBS) was added to the reaction and the plate centrifuged at 1500 rpm for 10 minutes. 5 μl of the reaction was then transferred to a 96 well opaque white plate containing 45 μl of PBS to allow the GSTp53N66 substrate to bind to the plate wells. The plate was covered and incubated at room temperature for 1 h with shaking before discarding the contents. The plate wells were washed twice by the addition of PBS prior to the addition of 3% (w/v) bovine serum albumin (BSA) in PBS. The plate was incubated at room temperature for 1 h with shaking before discarding the contents and washing twice with PBS. To the wells, 50 μl of a 1:10,000 dilution of primary phosphoserine-15 antibody (Cell Signaling Technology, #9284L) in 3% BSA/PBS was added to detect the phosphorylation event on the serine 15 residue of p53 elicited by the ATM kinase. After 1 h of incubation at room temperature with shaking, the wells were washed four times with PBS prior to the addition of an anti-rabbit HRP conjugated secondary antibody (Pierce, 31462) with shaking for 1 h at room temperature. The wells were then washed four times with PBS before the addition of chemiluminescence reagent (NEN Renaissance, NEL105). The plate was then shaken briefly, covered with a transparent plate seal and transferred to a TopCount NXT for chemiluminescent counting. Counts per second, following a one second counting time, were recorded for each reaction. The inhibition of ATM activity by compounds was calculated as described above for the DNA-PK assay.
# as §3
# ATM protein [4] = experiment: as above; assay type: biochemical, human; conditions: selectivity ratio from the IC50s for ATM and DNA-PK
# Description: as §4, §5, §3
# [5] = target: T3, Mammalian DNA-PK, isolated from Hela cell nuclear extract (Homo sapiens, UniProt P78527); experiment: DNA-PK inhibition assay (33P-ATP, filter binding); assay type: biochemical
# T3 construct: Mammalian DNA-PK, isolated from Hela cell nuclear extract; endogenous in cells; host or cells: HeLa cell nuclear extract (purified per Gell and Jackson 1999)
# Description: In order to assess the inhibitory action of the compounds against DNA-PK in vitro, the following assay was used to determine IC50 values.
# The total assay volume per well was 40 μl.
# After 10 minutes of incubation at 30° C. the reactions were initiated by the addition of Na-ATP (50 μM final), ^33p-γATP and a 30mer double stranded DNA oligonucleotide (10 ng/μl) in a volume of 10 μl. Designated positive and negative reaction wells were done in combination with compound wells (unknowns) in order to calculate % enzyme activities. The plates were then shaken for 2 minutes and incubated at 30° C. for 45 minutes.
# Following the incubation, the reactions were quenched by the addition of 50 μl 30% acetic acid to each well. The plates were then shaken for 5 minutes and the contents of each plate (80 μl from each well) transferred over to a 96 well Polyfiltronics filtration plate, containing P81-phosphocellulose membrane (TRADE MARK)(Whatman, UK). The solutions were vacuum pumped through the membrane and each well membrane washed four times using 300 μl of 15% acetic acid. The well membranes were then air dried and 20 μl of scintillant was added to each well.
# The plates were transferred to a TopCount NXT (TRADE MARK) (Packard, UK) for scintillation counting. Values recorded are counts per minute (cpm) following a 1 minute counting time for each well.
# The enzyme activity for each compound is then calculated using the following equation: […]
# These are determined over a range of different concentrations, normally from 10 μM down to 0.01 μM. Such IC50 values are used as comparative values to identify increased compound potencies.
# [6] = IC50 of less than about 1 μM and/or % inhibition of more than about 50 at 1 μM, read-out: DNA-PK inhibition IC50 (particular efficacy)
# [7] = concentration at which 50% of the enzyme activity is inhibited, read-out: DNA-PK Inhibition IC50
# T2 sequence (Q13315 whole entry): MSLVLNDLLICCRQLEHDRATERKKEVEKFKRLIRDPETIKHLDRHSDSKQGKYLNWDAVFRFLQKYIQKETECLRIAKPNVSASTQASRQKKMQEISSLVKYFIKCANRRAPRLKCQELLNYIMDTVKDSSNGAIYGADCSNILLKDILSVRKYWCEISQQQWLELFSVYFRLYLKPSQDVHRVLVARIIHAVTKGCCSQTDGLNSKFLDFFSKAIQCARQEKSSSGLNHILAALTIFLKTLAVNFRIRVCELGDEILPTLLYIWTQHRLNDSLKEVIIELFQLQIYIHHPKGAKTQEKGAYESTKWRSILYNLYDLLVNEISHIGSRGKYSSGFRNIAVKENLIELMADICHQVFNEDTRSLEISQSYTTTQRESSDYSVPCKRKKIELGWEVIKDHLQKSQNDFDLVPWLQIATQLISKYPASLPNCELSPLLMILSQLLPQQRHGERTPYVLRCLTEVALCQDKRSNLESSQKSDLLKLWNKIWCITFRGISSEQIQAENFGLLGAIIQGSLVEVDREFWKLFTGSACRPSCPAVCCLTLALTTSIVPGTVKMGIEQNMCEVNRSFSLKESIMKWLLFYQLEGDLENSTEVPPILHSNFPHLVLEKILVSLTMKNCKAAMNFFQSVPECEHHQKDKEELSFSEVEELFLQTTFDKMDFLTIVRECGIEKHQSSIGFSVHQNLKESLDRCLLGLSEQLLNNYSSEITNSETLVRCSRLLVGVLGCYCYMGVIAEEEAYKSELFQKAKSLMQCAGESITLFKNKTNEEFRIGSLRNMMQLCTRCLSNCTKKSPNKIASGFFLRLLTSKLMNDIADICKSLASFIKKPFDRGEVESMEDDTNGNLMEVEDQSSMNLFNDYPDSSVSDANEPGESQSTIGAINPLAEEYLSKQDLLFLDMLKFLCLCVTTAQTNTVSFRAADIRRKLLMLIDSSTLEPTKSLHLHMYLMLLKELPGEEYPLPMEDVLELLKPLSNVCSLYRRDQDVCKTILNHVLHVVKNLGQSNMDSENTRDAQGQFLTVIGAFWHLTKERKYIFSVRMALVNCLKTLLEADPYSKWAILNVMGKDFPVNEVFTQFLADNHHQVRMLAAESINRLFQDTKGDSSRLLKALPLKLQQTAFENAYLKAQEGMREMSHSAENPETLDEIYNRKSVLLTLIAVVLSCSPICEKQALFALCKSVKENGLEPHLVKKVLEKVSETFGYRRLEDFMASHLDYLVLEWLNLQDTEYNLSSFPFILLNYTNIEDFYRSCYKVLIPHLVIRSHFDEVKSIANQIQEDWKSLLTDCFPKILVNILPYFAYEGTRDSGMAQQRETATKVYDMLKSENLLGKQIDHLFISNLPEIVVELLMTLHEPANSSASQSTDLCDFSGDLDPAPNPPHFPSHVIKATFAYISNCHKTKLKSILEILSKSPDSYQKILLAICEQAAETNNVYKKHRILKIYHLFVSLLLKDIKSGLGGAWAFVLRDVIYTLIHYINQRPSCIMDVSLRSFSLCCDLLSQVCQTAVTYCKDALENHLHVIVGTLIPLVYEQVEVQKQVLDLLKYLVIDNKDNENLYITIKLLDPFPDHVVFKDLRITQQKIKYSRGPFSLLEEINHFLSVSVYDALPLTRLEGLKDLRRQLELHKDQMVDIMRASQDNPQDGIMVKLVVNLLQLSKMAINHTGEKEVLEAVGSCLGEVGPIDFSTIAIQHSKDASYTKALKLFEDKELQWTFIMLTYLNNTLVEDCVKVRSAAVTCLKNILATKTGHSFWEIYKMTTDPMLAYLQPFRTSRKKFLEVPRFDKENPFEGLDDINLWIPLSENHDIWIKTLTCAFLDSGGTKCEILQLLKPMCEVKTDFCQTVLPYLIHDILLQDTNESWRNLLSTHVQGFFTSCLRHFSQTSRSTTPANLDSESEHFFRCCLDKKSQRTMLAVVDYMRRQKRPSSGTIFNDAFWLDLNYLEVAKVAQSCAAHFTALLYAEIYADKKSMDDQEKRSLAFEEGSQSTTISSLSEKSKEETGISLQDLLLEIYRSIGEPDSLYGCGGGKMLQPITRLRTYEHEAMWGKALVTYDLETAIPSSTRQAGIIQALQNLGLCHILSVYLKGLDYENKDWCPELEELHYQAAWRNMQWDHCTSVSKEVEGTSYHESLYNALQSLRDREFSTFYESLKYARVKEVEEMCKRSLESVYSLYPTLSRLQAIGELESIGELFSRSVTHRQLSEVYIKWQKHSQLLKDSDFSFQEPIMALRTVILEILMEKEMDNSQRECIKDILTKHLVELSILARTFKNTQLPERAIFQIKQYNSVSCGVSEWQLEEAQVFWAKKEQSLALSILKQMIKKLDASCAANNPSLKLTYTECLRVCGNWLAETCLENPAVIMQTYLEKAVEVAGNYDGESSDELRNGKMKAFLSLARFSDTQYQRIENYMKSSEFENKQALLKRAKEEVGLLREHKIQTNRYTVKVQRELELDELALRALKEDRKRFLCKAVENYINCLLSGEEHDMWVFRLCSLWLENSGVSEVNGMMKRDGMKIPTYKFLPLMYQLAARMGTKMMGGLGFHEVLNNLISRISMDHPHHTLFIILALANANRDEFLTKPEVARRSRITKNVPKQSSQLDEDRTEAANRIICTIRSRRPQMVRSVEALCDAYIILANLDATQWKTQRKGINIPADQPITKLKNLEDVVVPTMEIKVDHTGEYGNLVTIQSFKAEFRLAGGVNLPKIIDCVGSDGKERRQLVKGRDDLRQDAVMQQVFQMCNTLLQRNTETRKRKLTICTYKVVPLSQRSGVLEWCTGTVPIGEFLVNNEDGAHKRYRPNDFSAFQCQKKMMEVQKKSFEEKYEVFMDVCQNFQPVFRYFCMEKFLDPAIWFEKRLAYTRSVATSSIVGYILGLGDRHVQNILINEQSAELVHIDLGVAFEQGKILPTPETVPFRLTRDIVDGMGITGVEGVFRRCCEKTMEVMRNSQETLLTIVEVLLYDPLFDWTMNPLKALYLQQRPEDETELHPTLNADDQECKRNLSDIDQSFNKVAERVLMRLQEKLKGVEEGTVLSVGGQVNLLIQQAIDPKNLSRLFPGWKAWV
Compound,IC50 (PI 3-kinase (p110α/p85α) [1]) [µM],Δ(DNA-PK/PI 3-K) (PI 3-kinase (p110α/p85α) [2]),IC50 (ATM protein [3]) [µM],Δ(DNA-PK/ATM) (ATM protein [4]),"IC50 [5, 6] [nM]","IC50 [5, 7] [nM]",melting point [°C]
"COc1ccc(-c2cc(=O)cc(N3CCOCC3)o2)cc1 [Compound 288, 2-(4-Methoxyphenyl)-6-(morpholin-4-yl)-pyran-4-one]",15,43,> 100,>286,–,–,–
"O=c1cc(N2CCOCC2)oc2cc3ccccc3cc12 [Compound 301, 2-(morpholin-4-yl)-benzo[g]chromen-4-one]",16,40,> 50,>125,< 1000,400,219
"COc1ccccc1-c1cc(=O)cc(N2CCOCC2)o1 [Compound 286, 2-(2-methoxyphenyl)-6-(morpholin-4-yl)-pyran-4-one]",–,–,24,80,–,–,125 to 127
"O=c1cc(N2CCSCC2)oc2c1ccc1ccccc12 [Compound 296, 2-(thiomorpholin-4-yl)-benzo[h]chromen-4-one]",6,5,> 100,>83,–,1200,171 to 173
"COc1cccc(-c2cc(=O)cc(N3CCOCC3)o2)c1 [Compound 287, 2-(3-methoxyphenyl)-6-(morpholin-4-yl)-pyran-4-one]",–,–,> 50,>125,–,–,115 to 117
"O=c1cc(N2CCOCC2)oc2cc(OCc3ccc4ccccc4c3)ccc12 [Compound 418, 7-(Naphthalen-2-ylmethoxy)-2-morpholin-4-yl-chromen-4-one]",–,–,> 100,>222,< 1000,450,263 to 264
"O=c1cc(-c2ccc(F)cc2)oc(N2CCOCC2)c1 [Compound 292, 6-(4-fluorophenyl)-2-(morpholin-4-yl)pyran-4-one]",13,52,> 100,>400,–,–,216 to 217
"O=c1cc(N2CCOCC2)oc2cc(O)ccc12 [Compound 307, 7-hydroxy-2-(morpholin-4-yl)-chromen-4-one]",–,–,> 100,>111,–,900,–
"CC(C)(C)c1ccc(-c2cc(=O)cc(N3CCOCC3)o2)cc1 [Compound 289, 2-(4-tert-butyl-phenyl)-6-(morpholin-4-yl)-pyran-4-one]",37,82,> 50,>111,–,–,156
"O=c1cc(-c2ccccc2)oc(N2CCOCC2)c1 [Compound 285, 2-(morpholin-4-yl)-6-phenyl-pyran-4-one]",30,38,> 50,>63,–,–,148 to 150
"O=c1cc(-c2cccc(F)c2)oc(N2CCOCC2)c1 [Compound 291, 6-(3-fluorophenyl)-2-(morpholin-4-yl)pyran-4-one]",–,–,> 50,>167,–,–,169 to 170
"O=c1cc(N2CCOCC2)oc2c(-c3ccccc3)cccc12 [Compound 294, 8-Phenyl-2-(morpholin-4-yl)-chromen-4-one]",–,1,> 100,> 67,–,–,–
"O=C(Oc1ccc2c(=O)cc(N3CCOCC3)oc2c1)c1ccccc1 [Compound 423, 7-Benzoyloxy-2-(morpholin-4-yl)-chromen-4-one]",–,–,> 100,>33,–,3000,204 to 206
"O=c1cc(N2CCOCC2)oc2ccc3ccccc3c12 [Compound 310, 2-morpholin-4-yl-benzo[f]chromen-4-one]",11,110,> 100,>1000,–,–,–
"O=c1cc(N2CCSCC2)nc2c3ccccc3ccn12 [Compound 6, 2-Thiomorpholin-4-yl-pyrimido[2,1-a]isoquinolin-4-one]",–,–,–,–,< 1000,5000,240 to 242
"O=c1cc(-c2ccc(Cl)cc2)oc(N2CCOCC2)c1 [Compound 284, 2-(4-chlorophenyl)-6-(morpholin-4-yl)-pyran-4-one]",–,–,> 100,>286,–,–,–
